Data reported in patent US20210292851A1, “METHOD OF MONITORING EFFECTIVENESS OF IMMUNOTHERAPY OF CANCER PATIENTS” (Roche Sequencing Solutions, Inc., priority 2018, published 2021).

Legend:
advanced NSCLC patients = assay: Phase 3 randomized trial, Atezolizumab vs docetaxel in second line advanced NSCLC: progression-free survival by baseline ctDNA mutation metric; type: in vivo, human; settings: for Events/Total number of patients: PFS events
Description: In a Phase 3, open-label, multicenter randomized controlled trial, NSCLC patients received either Atezolizumab or docetaxel in a second line setting of advanced NSCLC. Blood plasma samples were obtained from 102 patients prior to start of second line therapy. The AVENIO® ctDNA kit, Surveillance Panel (Roche Sequencing Solutions, Pleasanton, Calif.) was used to assess the number of mutations in patient samples. Cell-free DNA (cfDNA) from the patients was isolated and analyzed according to the manufacturer's instructions of the AVENIO® ctDNA Kit. The metrics assessed included the numbers of variants and maximum allele frequency (MaxAF, the highest allele frequency of a single mutation among all mutations detected within a single sample).
The “number of mutations” metric was assessed on the population level and patients were assessed for progression-free survival (PFS) and overall survival (OS). (FIGS. 1 and 2, Tables 2 and 3) Using median or 75th percentile cut-off, patients treated with Atezolizumab and with number of mutations greater or equal median or 75th percentile have longer progression survival compared to that of chemotherapy, with a HR of 0.67 or 0.49, respectively. Meanwhile, Atezolizumab didn't show more benefit vs chemotherapy in patients with number of mutations fewer than the median or 75th percentile. The HR is 1.12 and 1.05 for <median or <75 percentile, respectively.
The MaxAF detected in the blood samples was also used to assess its relationship with progression free survival and overall survival. Using median cut-off, patients with MaxAF greater than the median have longer progression free survival when treated with Atezolizumab compared to chemotherapy, with a HR of 0.56 (FIG. 3, Table 4). In patients with MaxAF lesser the median, no benefit was observed on treatment with Atezolizumab vs chemotherapy (HR of 1.45).

NSCLC patients [1] = assay: Same Phase 3 trial with serial ctDNA monitoring: overall survival by maxMMPM at C3D1; type: in vivo, human
Procedure: In this example, the patients' samples from the same Phase 3 trial as described in Example 1 were collected processed an analyzed essentially as described in Example 1. However, the samples were collected serially during the administration of therapy.
Multiple metrics of circulating tumor DNA (ctDNA) were assessed for association with OS.
Plasma from 94 patients taken at baseline and at subsequent cycles of therapy every three weeks (C2D1, C3D1, and C4D1) were analyzed retrospectively for ctDNA with the AVENIO ctDNA Surveillance Kit (Roche Sequencing Solutions, Pleasanton, Calif.) Mutations detected in matched PBMC DNA were excluded in correlation analyses with clinical outcomes. ctDNA was measured by allele frequency (AF) or mutant molecules per milliliter (MMPM), and summarized across multiple mutations within a sample by median, mean or maximum. Concordance between these per-sample metrics and PFS/OS were assessed using C index, which is equivalent to AUC under a Receiver Operating Characteristic (ROC) curve.
Specifically, samples were collected and assessed at drug administration cycle 1, 2, or 3 or 4 taken in each case, on day 1 (C1D1, C2D1, C3D1, and C4D1). […] Using the max MMPM at C3D1, the patients were dichotomized at a median for the entire cohort of 8.75 maximal MMPM. […] In the docetaxel arm, the 1-year survival rate among MMPM low vs MMPM high patients was 0.7 vs 0.07. Because mutation metrics obtained from overall ctDNA levels were associated with OS in metastatic NSCLC, ctDNA is a promising non-invasive blood based biomarker in the metastatic setting of NSCLC.

NSCLC patients [2] = settings: ≥2L NSCLC patients; previously demonstrated by the study; cited from earlier work
[3] = number of detected variants <75th percentile (<12)
[4] = number of detected variants <Median (<6.5)
[5] = number of detected variants ≥75th percentile (≥12)
[6] = number of detected variants ≥Median (≥6.5)
[7] = patients with MaxAF <Median (<44.58) at baseline
[8] = patients with MaxAF ≥Median (≥44.58) at baseline
[9] = patients with number of detected variants <75th percentile (<12) at baseline
[10] = patients with number of detected variants <Median (<6.5) at baseline
[11] = patients with number of detected variants ≥75th percentile (≥12) at baseline
[12] = patients with number of detected variants ≥Median (≥6.5) at baseline
[13] = MMPM high patients (max MMPM at C3D1, dichotomized at median 8.75)
[14] = MMPM low patients (max MMPM at C3D1, dichotomized at median 8.75)

Compound	Events/Total number of patients (advanced NSCLC patients; MaxAF <Median (<44.58))	Events/Total number of patients (advanced NSCLC patients; MaxAF ≥Median (≥44.58))	Events/Total number of patients (advanced NSCLC patients; [3])	Events/Total number of patients (advanced NSCLC patients; [4])	Events/Total number of patients (advanced NSCLC patients; [5])	Events/Total number of patients (advanced NSCLC patients; [6])	Median Progression Free Survival (advanced NSCLC patients; [7])	Median Progression Free Survival (advanced NSCLC patients; [8])	Median Progression Free Survival (advanced NSCLC patients; [9])	Median Progression Free Survival (advanced NSCLC patients; [10])	Median Progression Free Survival (advanced NSCLC patients; [11])	Median Progression Free Survival (advanced NSCLC patients; [12])	1-year survival rate (OS) (NSCLC patients [1]; [13])	1-year survival rate (OS) (NSCLC patients [1]; [14])	further results
CC(=O)O[C@@]12CO[C@@H]1C[C@H](O)[C@@]1(C)C(=O)[C@H](O)C3=C(C)[C@@H](OC(=O)[C@H](O)[C@@H](NC(=O)OC(C)(C)C)c4ccccc4)C[C@@](O)([C@@H](OC(=O)c4ccccc4)[C@H]21)C3(C)C [Docetaxel, docetaxel]	27/28	23/23	37/37	27/27	13/14	23/24	4.09	3.09	4.07	3.98	2.41	2.94	0.07	0.7	–
atezolizumab	22/23	24/28	35/38	23/24	11/13	23/27	2.6	4.99	2.71	2.74	5.85	2.79	0.43	0.81	Hazard Ratio (HR), progression free survival, Atezolizumab vs docetaxel (advanced NSCLC patients; MaxAF <Median (<44.58)): 1.45; Hazard Ratio (HR), progression free survival, Atezolizumab vs docetaxel (advanced NSCLC patients; MaxAF ≥Median (≥44.58)): 0.56; Hazard Ratio (HR), progression free survival, Atezolizumab vs docetaxel (advanced NSCLC patients; [3]): 1.05; Hazard Ratio (HR), progression free survival, Atezolizumab vs docetaxel (advanced NSCLC patients; [4]): 1.12; Hazard Ratio (HR), progression free survival, Atezolizumab vs docetaxel (advanced NSCLC patients; [5]): 0.49; Hazard Ratio (HR), progression free survival, Atezolizumab vs docetaxel (advanced NSCLC patients; [6]): 0.67; OS benefit, atezolizumab vs docetaxel (NSCLC patients [2]): clinically significant OS benefit
